Results taken from US20190166840A1, “SUBSTITUTED PYRAZOLINYL DERIVATIVES, PROCESSES FOR THEIR PREPARATION AND THEIR USE AS HERBICIDES AND/OR PLANT GROWTH REGULATORS” (BAYER CROPSCIENCE AKTIENGESELLSCHAFT, priority 2016, published 2019).

What was measured:
Assay type in all cases: in vivo
Conditions in all cases: application rate 1280 g/ha, scored visually after about 3 weeks
Amaranthus retroflexus = assay: Pre-emergence herbicidal action, AMARE
Source text: (§1) Pre-Emergence Herbicidal Action Seeds of mono- and dicotyledonous weed plants or crop plants were placed in sandy loam in wood fibre pots and covered with soil. The formulated compounds of the general formula (I) according to the invention were then applied to the surface of the covering soil in the form of an aqueous suspension or emulsion at an application rate of 600 l of water/ha (converted) with addition of 0.2% wetting agent. After the treatment, the pots were placed in a greenhouse and kept under good growth conditions for the test plants. After about 3 weeks, the effect was scored visually in percent in comparison to untreated controls. For example, 100% activity=the plants have died, 50% herbicidal activity or damage=plants reduced to 50% or plant material reduced by 50%, 0% activity=like control plants. Here, in the biological tests, the compounds of the general formula (I) according to the invention were in each case employed in a formulation, with the numerations of Tables I.1 to I.77 also applying here. Here, the herbicidal action of the compounds of the general formula (I) according to the invention was examined for the following harmful plants: AMARE=Amaranthus retroflexus The respective herbicidal action was in each case determined at the same point in time after application of the formulation in question, i.e. damage of the harmful plant in question in %. Pre-emergence herbicidal action of the compounds of the general formula (I) according to the invention: […]

Stellaria media = assay: Pre-emergence herbicidal action, STEME
Source text: as §1, with “STEME=Stellaria media” for “AMARE=Amaranthus retroflexus”

[1] = system: Polygonum convolvulus (=Fallopia convolvulus); assay: Pre-emergence herbicidal action, POLCO
Source text: as §1, with “POLCO=Polygonum convolvulus (=Fallopia convolvulus)” for “AMARE=Amaranthus retroflexus”

Viola tricolor = assay: Pre-emergence herbicidal action, VIOTR
Source text: as §1, with “VIOTR=Viola tricolor” for “AMARE=Amaranthus retroflexus”

Hordeum murinum = assay: Pre-emergence herbicidal action, HORMU
Source text: as §1, with “HORMU=Hordeum murinum” for “AMARE=Amaranthus retroflexus”

Row | Compound | Pre-emergence herbicidal action AMARE, damage of the harmful plant (Amaranthus retroflexus) | Pre-emergence herbicidal action STEME, damage of the harmful plant (Stellaria media) | Pre-emergence herbicidal action POLCO, damage of the harmful plant [1] | Pre-emergence herbicidal action VIOTR, damage of the harmful plant (Viola tricolor) | Pre-emergence herbicidal action HORMU, damage of the harmful plant (Hordeum murinum)
1 | CC1=C(C)C(O)N(C2=NN(c3ccccn3)C(C)(C)C2)C1=O (stereo not drawn) [I.2-132] | 60% | 100% | 40% | 80% | 0%
2 | CC1=C(C)C(O)N(C2=NN(c3ccccc3)C(C(F)(F)F)C2)C1=O (stereo not drawn) [I.2-1413] | 60% | 100% | 100% | 100% | 60%
3 | CCC(=O)OC1C(C)=C(C)C(=O)N1C1=NN(c2ccccn2)C(C)(C)C1 (stereo not drawn) [I.23-132] | 70% | 100% | 0% | 70% | 20%
4 | CCC(=O)OC1C(C)=C(C)C(=O)N1C1=NN(c2ccccc2)CC1 (stereo not drawn) [I.23-621] | 40% | 0% | 100% | 70% | 0%
5 | CCC(=O)OC1C(C)=C(C)C(=O)N1C1=NN(c2ccccc2)C(C(F)(F)F)C1 (stereo not drawn) [I.23-1413] | 50% | 80% | 80% | 100% | 30%
6 | CCC(=O)OC1C(C)=C(Cl)C(=O)N1C1=NN(C)C(c2ccccc2)C1 (stereo not drawn) [I.24-1126] | 0% | 20% | 0% | 10% | 20%
